Reference: patent US20260001853A1, “ASCORBIC ACID DERIVATIVE OR SALT THEREOF, AND COSMETIC THEREOF” (SEIWA KASEI COMPANY, LIMITED, priority 2022, published 2026)

Experiments:
[1] = test system: Normal human dermal fibroblasts (NHDF); test: Hyaluronic acid production promoting effect (ELISA of supernatant); type: cell-based; conditions: amount of hyaluronic acid produced, % with control group taken as 100%; sample at 10 mmol/L or less, 48 hours, N=3
In short: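 NHDF pre-incubated 24 h, then exposed to samples at 10 mmol/L or less in serum-free D-MEM for 48 h. Supernatant hyaluronic acid quantified by ELISA, N=3, expressed as % of control (100%) and scored ± (<100%), + (100-120%), ++ (120-150%), +++ (150%).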

[2] = test system: Normal human epidermal keratinocytes; test: Antioxidant test (ROS production after H2O2 treatment, DCFHDA probe); type: cell-based; conditions: sample at a concentration of 10 mM or less, 24 h culture, 0.2 mM H2O2 for 2 hours, ROS per unit protein, N=4
Procedure: Normal human epidermal keratinocytes were seeded in a 96-well plate using KG2 medium to a cell density of 2.0×10^4 cells/well. After 24 hours of pre-incubation, samples adjusted to a predetermined concentration with KG2 medium were added to each well. After 24 hours of culture and removal of the medium, the wells were washed with HBSS(−) and the ROS-reactive fluorescent probe DCFHDA was allowed to incorporate for 30 minutes. The wells were washed again with HBSS(—), treated with 0.2 mM H2O2, and cultured for 2 hours. The fluorescence intensity was measured, and the amount of ROS produced per unit protein was calculated by dividing the fluorescence intensity by the amount of protein quantified by the BCA method.
The antioxidant effect when the sample was measured at a concentration of 10 mM or less was expressed as follows. The measurement was performed with N=4. • <20%: ± • 20-40%: + • 40-70%: ++ • 70-100%: +++

[3] = test system: B16 melanoma 4A5 cells; test: Melanin production inhibitory effect (theophylline-induced melanin production); type: cell-based, mouse; conditions: melanin production inhibition rate, sample at a concentration of 10 mM or less, 3 days culture, theophylline 1 mmol/L, N=4
In short: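 Mouse B16 4A5 cells cultured 24 h in D-MEM/10% FBS, then 3 days with 1 mmol/L theophylline (final) plus sample at 10 mM or less. Melanin measured by alkali solubilization (1 mol/L NaOH, 60° C, 30 min, A405) against synthetic melanin standard, normalized to BCA protein. Inhibition rate relative to normal and control groups, scored as graded ranges; N=4.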

[4] = test system: Normal human dermal fibroblasts; test: Collagen production promoting effect (ELISA of supernatant); type: cell-based; conditions: amount of collagen produced, % with control group taken as 100%; sample at 10 mmol/L or less, 48 hours, N=3
In short: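 Fibroblasts in D-MEM with 5% FBS were pre-incubated 24 h, then exposed to samples for 48 h. Free collagen in supernatant quantified by ELISA (N=3), expressed as % of control (control = 100%) at ≤10 mmol/L, scored ± (<100%), + (100-120%), ++ (120%).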

[5] = Stability test (residual rate by HPLC, odor, coloring); type: physicochemical; conditions: 1% aqueous solution; for Coloring / Odor: total score of 10 panelists
In short: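 A 1% aqueous solution of each test sample was brought to pH 6 with dilute potassium hydroxide aqueous solution, sealed in a 50 mL screw tube, and stored. Residual rate was calculated from HPLC peak area on a Shimadzu liquid chromatograph. Ten panelists scored odor and coloring on a 1–3 scale each, and the summed scores were classified.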

[6] = pH 6, stored at 50° C., four weeks later
[7] = pH 6, stored at 50° C., two weeks later

O=C1O[C@H]([C@@H](O)CO)C(O)=C1OCC(O)CO (some centres unmarked) [2-O-glyceryl ascorbic acid, reference compound]
Hyaluronic acid production promoting effect [1]: + (100-120%: +) | Antioxidant Effects [2]: ± (<20%: ±) | Melanin production inhibition effect [3]: + (20-40%: +) | Collagen production promoting effect [4]: + (100-120%: +)

O=C1O[C@H]([C@@H](O)CO)C(OCC(O)CO)=C1O (some centres unmarked) [3-O-glyceryl ascorbic acid, reference compound]
Hyaluronic acid production promoting effect [1]: + (100-120%: +) | Antioxidant Effects [2]: + (20-40%: +) | Melanin production inhibition effect [3]: + (20-40%: +) | Residual rate ([5]; pH 6, 50° C., initial): ⊚ (⊚: 90% or more) | Coloring ([5]; pH 6, 50° C., initial): ◯ (◯: Total score of 10 panelists is 25 or more) | Odor ([5]; pH 6, 50° C., initial): ◯ (◯: Total score of 10 panelists is 20-24) | Residual rate [5, 6]: Δ (Δ: 60% or more, less than 80%) | Coloring [5, 6]: Δ (Δ: Total score of 10 panelists is 16-24) | Odor [5, 6]: Δ (Δ: Total score of 10 panelists is 16-19) | Residual rate [5, 7]: ◯ (◯: 80% or more, less than 90%) | Coloring [5, 7]: Δ (Δ: Total score of 10 panelists is 16-24) | Odor [5, 7]: Δ (Δ: Total score of 10 panelists is 16-19) | Collagen production promoting effect [4]: + (100-120%: +)

CC(C)(O)COC1=C(O)[C@@H]([C@@H](O)CO)OC1=O [Synthesis Example 1, 2-O-(2-hydroxyisobutyl) ascorbic acid]
Hyaluronic acid production promoting effect [1]: + (100-120%: +) | Antioxidant Effects [2]: ++ (40-70%: ++) | Melanin production inhibition effect [3]: ++ (40-60%: ++) | Residual rate ([5]; pH 6, 50° C., initial): ⊚ (⊚: 90% or more) | Coloring ([5]; pH 6, 50° C., initial): ◯ (◯: Total score of 10 panelists is 25 or more) | Odor ([5]; pH 6, 50° C., initial): ◯ (◯: Total score of 10 panelists is 20-24) | Residual rate [5, 6]: ⊚ (⊚: 90% or more) | Coloring [5, 6]: ◯ (◯: Total score of 10 panelists is 25 or more) | Odor [5, 6]: ◯ (◯: Total score of 10 panelists is 20-24) | Residual rate [5, 7]: ⊚ (⊚: 90% or more) | Coloring [5, 7]: ◯ (◯: Total score of 10 panelists is 25 or more) | Odor [5, 7]: ◯ (◯: Total score of 10 panelists is 20-24) | Collagen production promoting effect [4]: ++ (120%: ++)

CC(C)(O)COC1=C(O)C(=O)O[C@@H]1[C@@H](O)CO [Synthesis Example 2, 3-O-(2-hydroxyisobutyl) ascorbic acid]
Hyaluronic acid production promoting effect [1]: + (100-120%: +) | Antioxidant Effects [2]: ++ (40-70%: ++) | Melanin production inhibition effect [3]: + (20-40%: +) | Residual rate ([5]; pH 6, 50° C., initial): ⊚ (⊚: 90% or more) | Coloring ([5]; pH 6, 50° C., initial): ◯ (◯: Total score of 10 panelists is 25 or more) | Odor ([5]; pH 6, 50° C., initial): ◯ (◯: Total score of 10 panelists is 20-24) | Residual rate [5, 6]: ⊚ (⊚: 90% or more) | Coloring [5, 6]: ◯ (◯: Total score of 10 panelists is 25 or more) | Odor [5, 6]: ◯ (◯: Total score of 10 panelists is 20-24) | Residual rate [5, 7]: ⊚ (⊚: 90% or more) | Coloring [5, 7]: ◯ (◯: Total score of 10 panelists is 25 or more) | Odor [5, 7]: ◯ (◯: Total score of 10 panelists is 20-24) | Collagen production promoting effect [4]: + (100-120%: +)

CCOC1=C(OCC(C)(C)O)C(=O)O[C@@H]1[C@@H](O)CO [Synthesis Example 3, 2-O-(2-hydroxyisobutyl)-3-O-ethylascorbic acid]
Antioxidant Effects [2]: ++ (40-70%: ++) | Melanin production inhibition effect [3]: +++ (60-100%: +++) | Collagen production promoting effect [4]: ++ (120%: ++)

CCOC1=C(OCC(C)(C)O)[C@@H]([C@@H](O)CO)OC1=O [Synthesis Example 18, 2-O-ethyl-3-O-(2-hydroxyisobutyl) ascorbic acid]
Hyaluronic acid production promoting effect [1]: ++ (120-150%: ++) | Antioxidant Effects [2]: ++ (40-70%: ++) | Melanin production inhibition effect [3]: +++ (60-100%: +++) | Collagen production promoting effect [4]: ++ (120%: ++)

CCCCCCCCCCCCCCC(O)COC1=C(OCC(C)(C)O)[C@@H]([C@@H](O)CO)OC1=O (some centres unmarked) [Synthesis Example 42, 3-O-(2-hydroxyisobutyl)-2-O-(2-hydroxyhexadecyl) ascorbic acid]
Hyaluronic acid production promoting effect [1]: +++ (150%: +++) | Melanin production inhibition effect [3]: ++ (40-60%: ++) | Residual rate ([5]; pH 6, 50° C., initial): ⊚ (⊚: 90% or more) | Coloring ([5]; pH 6, 50° C., initial): ◯ (◯: Total score of 10 panelists is 25 or more) | Odor ([5]; pH 6, 50° C., initial): ◯ (◯: Total score of 10 panelists is 20-24) | Residual rate [5, 6]: ⊚ (⊚: 90% or more) | Coloring [5, 6]: ◯ (◯: Total score of 10 panelists is 25 or more) | Odor [5, 6]: ◯ (◯: Total score of 10 panelists is 20-24) | Residual rate [5, 7]: ⊚ (⊚: 90% or more) | Coloring [5, 7]: ◯ (◯: Total score of 10 panelists is 25 or more) | Odor [5, 7]: ◯ (◯: Total score of 10 panelists is 20-24) | Collagen production promoting effect [4]: + (100-120%: +)

CC(C)(O)COC1=C(OCC(O)c2ccccc2)C(=O)OC1C(O)CO (centres unmarked) [Synthesis Example 43, 3-O-(2-hydroxyisobutyl)-2-O-(2-hydroxyethylbenzene) ascorbic acid]
Hyaluronic acid production promoting effect [1]: ++ (120-150%: ++) | Melanin production inhibition effect [3]: ++ (40-60%: ++) | Residual rate ([5]; pH 6, 50° C., initial): ⊚ (⊚: 90% or more) | Coloring ([5]; pH 6, 50° C., initial): ◯ (◯: Total score of 10 panelists is 25 or more) | Odor ([5]; pH 6, 50° C., initial): ◯ (◯: Total score of 10 panelists is 20-24) | Residual rate [5, 6]: ⊚ (⊚: 90% or more) | Coloring [5, 6]: ◯ (◯: Total score of 10 panelists is 25 or more) | Odor [5, 6]: ◯ (◯: Total score of 10 panelists is 20-24) | Residual rate [5, 7]: ⊚ (⊚: 90% or more) | Coloring [5, 7]: ◯ (◯: Total score of 10 panelists is 25 or more) | Odor [5, 7]: ◯ (◯: Total score of 10 panelists is 20-24) | Collagen production promoting effect [4]: ++ (120%: ++)
